From article PMC11889159 (Scientific Reports, 2025)
Several values for one entry are separate records, joined by “and”; a condition that tells them apart may be missing. Equal values may be shown once. Read-outs that look alike come from different tables or passages of the source.

Assays:
[1] = biological target: T1, bovine serum albumin (BSA) (Bos taurus, UniProt P02769); conditions: for λex/λem: pH 7.4
From the text: Three-dimensional fluorescence spectroscopy, or excitation-emission matrix (EEM) spectroscopy, offers distinct advantages and broad applications for analyzing interactions between small molecules and BSA[55].
The excitation wavelength was systematically scanned from 220 to 350 nm with 5 nm increments, while the emission spectra were simultaneously recorded across the 220–500 nm range at a scanning speed of 12,000 nm min^− 1. The excitation and emission slit widths were maintained at 10 nm throughout the measurements to ensure consistent spectral resolution.

[2] = biological target: T1, bovine serum albumin (BSA); conditions: experimental ΔG versus docking ΔG at Site I
Description: The three-dimensional structure of BSA was obtained from the RCSB Protein Data Bank (PDB) database (https://www.rcsb.org/) (PDB ID: 4f5s). […] Open Babel 3.1.1 software was utilized to convert the sdf format files from the PubChem database to pdb format. […] Additionally, the molecular visualization was conducted using Pymol version 2.6.0a0 for 3D visualization and LigPlot + version 2.2.8 for 2D visualization.

[3] = biological target: T1, bovine serum albumin (BSA); test: biochemical; conditions: logKb
[4] = biological target: T1, bovine serum albumin (BSA); conditions: for τave (average fluorescence lifetime): free BSA 3.72 ns
From the text: In general, the fluorescence lifetime measurement is the most definitive method to distinguish between dynamic and static quenching.

[5] = biological target: T1, bovine serum albumin (BSA)
Description: UV absorption measurement is a simple yet effective technique for examining structural changes and complex formation. […] Variations in the absorbance near 280 nm signify interactions with small molecule drugs.
Absorption spectra were recorded using a UV-vis spectrophotometer (T6 New Century) over the wavelength range of 200–400 nm.

[6] = biological target: T1, bovine serum albumin (BSA); test: biochemical
From the text: The inner filter effect (IFE) arises when high analyte concentrations (e.g., fluorophores, ligands, or biomolecules) attenuate excitation light or absorb emitted photons, effectively reducing the optical path length and consequently causing depressed fluorescence readings. To mitigate this phenomenon in our experimental system, we strategically optimized sample concentrations through preliminary calibration studies.
Fluorescence quenching mechanisms can be categorized into static, dynamic, and combined quenching. […] Combined quenching involves both mechanisms, where the fluorophore collides with and forms a stable complex with the quencher. These processes can be described by the Stern-Volmer equation[49]: [drawing 1]
Where F0 and F are the fluorescence intensities in the absence and presence of the quencher, respectively; KSV is the Stern-Volmer quenching constant; [Q] is the quencher concentration; Kq is the bimolecular quenching constant; and τ0 is the fluorescence lifetime in the absence of the quencher (6.3 × 10^− 9 s)[50]. […] (unit: mol/L), and the Y-axis represents the fluorescence intensity ratio F0/F. The data points represent the experimentally measured F0/F values, while the solid line is the linear fit. […] The slope obtained from the linear fit according to the Stern-Volmer equation represents the quenching constant (KSV).
The binding constant (Kb) is calculated using the following formula: […]
Where Kb is the binding constant, n is the number of binding sites per BSA molecule, F0 and F are the fluorescence intensities without and with the quencher, respectively, and [Q] is the quencher concentration. Linear regression is used to fit the data, resulting in a straight line whose slope indicates n (the number of binding sites), and the intercept gives logKb.
Where R is 8.314 J·mol^-1·K^-1, T is 298 K (273 + 25 °C), and Kb is the calculated binding constant.
Fluorescence spectra were acquired using a Hitachi F-7100 fluorescence spectrophotometer equipped with a 150 W xenon lamp and 10 mm quartz cuvette. The instrument parameters were maintained at excitation and emission bandwidths of 10 nm, with a scanning speed of 1200 nm·min^− 1 and PMT voltage of 400 V throughout the experiments.

[7] = parameters: method as in none printed; conditions: prolonged circulation; species and source not given; cited from earlier work
[8] = biological target: T1, bovine serum albumin (BSA); conditions: van't Hoff plot, 293, 298 and 310 K, pH 7.4
[9] = biological target: T1, bovine serum albumin (BSA); test: Job's method, stoichiometry of inclusion complexation with BSA; format: binding; conditions: [BSA] + [TPT] = 2.0 × 10^-6 mol/L, λex 295 nm
[10] = biological target: T1, bovine serum albumin (BSA); test: biochemical; conditions: LogKb, pH 7.4
[11] = Site marker: Blank (no marker), BSA 1.0 × 10^-6 mol/L
[12] = Site marker: Ibuprofen 2 × 10^-6 mol/L, BSA 1.0 × 10^-6 mol/L
[13] = Site marker: Warfarin 2 × 10^-6 mol/L, BSA 1.0 × 10^-6 mol/L
[14] = BSA 1 × 10^-6 mol/L, drug 5 × 10^-6 mol/L, λex 295 nm, λem 350 nm
[15] = BSA 1 × 10^-6 mol/L, drug 5 × 10^-6 mol/L
[16] = BSA 1.0 × 10^-6 mol/L, drug 5.0 × 10^-6 mol/L
[17] = BSA 1.0 × 10^-6 mol/L, drug 5.0 × 10^-6 mol/L, phosphate buffer, 298.15 K
[18] = drug:BSA 5:1, Peak 1, BSA 3 × 10^-6 mol/L
[19] = drug:BSA 5:1, Peak 1, BSA alone 9750
[20] = drug:BSA 5:1, Peak 1, blue shift
[21] = drug:BSA 5:1, Peak 2, BSA 3 × 10^-6 mol/L
[22] = drug:BSA 5:1, Peak 2, BSA alone 7937
[23] = drug:BSA 5:1, Peak 2, blue shift
[24] = drug:BSA 10:1, Peak 1, BSA 3 × 10^-6 mol/L
[25] = drug:BSA 10:1, Peak 1, BSA alone 9750
[26] = drug:BSA 10:1, Peak 1, blue shift
[27] = drug:BSA 10:1, Peak 2, BSA 3 × 10^-6 mol/L
[28] = drug:BSA 10:1, Peak 2, BSA alone 7937
[29] = drug:BSA 10:1, Peak 2, blue shift
[30] = BSA 2 × 10^-6 mol/L, drug 0–33 × 10^-6 mol/L, pH 7.4, 298.15 K
[31] = BSA 2 × 10^-6 mol/L, pH 7.4, 298.15 K
[32] = BSA 2 × 10^-6 mol/L, phosphate buffer pH 7.40, λex 295 nm
[33] = slope of double logarithmic plot, 298 K

T1 sequence (P02769 25-607): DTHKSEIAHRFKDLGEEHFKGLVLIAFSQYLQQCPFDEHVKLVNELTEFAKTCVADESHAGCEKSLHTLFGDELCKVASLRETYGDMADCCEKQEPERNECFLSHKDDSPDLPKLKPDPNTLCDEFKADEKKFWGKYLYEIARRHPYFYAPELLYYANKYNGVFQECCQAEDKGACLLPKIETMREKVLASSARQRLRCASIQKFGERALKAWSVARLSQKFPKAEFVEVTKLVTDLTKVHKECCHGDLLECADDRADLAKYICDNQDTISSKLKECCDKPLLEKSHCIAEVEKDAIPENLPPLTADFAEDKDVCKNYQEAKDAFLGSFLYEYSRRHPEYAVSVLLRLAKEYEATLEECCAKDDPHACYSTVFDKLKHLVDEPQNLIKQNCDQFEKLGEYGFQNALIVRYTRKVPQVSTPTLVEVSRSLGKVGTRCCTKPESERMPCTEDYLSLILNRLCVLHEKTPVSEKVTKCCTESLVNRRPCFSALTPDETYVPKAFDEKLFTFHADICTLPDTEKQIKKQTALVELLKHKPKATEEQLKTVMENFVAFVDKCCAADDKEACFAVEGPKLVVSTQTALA

Structure (SMILES) | Kd [3, 11] [µM] | Kd [3, 12] [µM] | Kd [3, 13] [µM] | A1 (decay amplitude) [4, 14] | A2 (decay amplitude) [4, 14] | τ1 [4, 14] [ns] | τ2 [4, 14] [ns] | τave (average fluorescence lifetime) [4, 15] [ns] | blue shift of the UV absorption peak of BSA at 280 nm [5, 16] [nm] | Changes in absorption peaks (280 nm) [5, 17] | Kd [6] [µM] | λex/λem [1, 18] | Intensity [1, 19] | Emission maximum shift [1, 20] [nm] | λex/λem [1, 21] | Intensity [1, 22] | Emission maximum shift [1, 23] [nm] | λex/λem [1, 24] | Intensity [1, 25] | Emission maximum shift [1, 26] [nm] | also measured
CC[C@@]1(O)C(=O)OCc2c1cc1n(c2=O)Cc2cc3cc(O)ccc3nc2-1 [10-HCPT, 10-Hydroxycamptothecin] | 120 | 44.7 | 1510 | 0.8806 | 0.1858 | 2.239 | 7.483 | 4.41 | 2 | 280 nm→278 nm | 121 | – | – | – | – | – | – | – | – | – | Emission maximum shift [1]: 15 nm; λex/λem [1]: 225/325 and 275/325; ΔΔG between experimental and theoretical binding energy [2]: ≈ 10.51 kJ·mol^−1; Kq (bimolecular quenching constant) [6]: 23.79 ×10^11 L·mol^− 1·s^− 1; n (number of binding sites per BSA molecule) [6]: 0.8809; Ksv (Stern-Volmer quenching constant) ([6]; pH 7.4): 14.99 ×10^3 L·mol^− 1; Stern–Volmer equation Slope ([6]; pH 7.4): 14986.88 ± 1787.60; blue shift of the maximum fluorescence emission peak of BSA (Δλmax) ([6]; pH 7.4): 11.8 nm
CC[C@@]1(O)C(=O)OCc2c1cc1n(c2=O)Cc2cc3ccccc3nc2-1 [CPT, Camptothecin] | 234 | 759 | 5500 | 0.7855 | 0.2263 | 1.889 | 5.78 | 3.71 | 3 | 280 nm→277 nm | 236 | 275/340 | 3382 | 0 | 225/340 | 5518 | 0 | 275/340 | 3179 | 0 | Reduction percent (fluorescence intensity) ([1]; drug:BSA 5:1, Peak 1): 65%; Reduction percent (fluorescence intensity) ([1]; drug:BSA 5:1, Peak 2): 30%; Reduction percent (fluorescence intensity) ([1]; drug:BSA 10:1, Peak 1): 67%; Reduction percent (fluorescence intensity) ([1]; drug:BSA 10:1, Peak 2): 33%; λex/λem [1, 27]: 225/340; Intensity [1, 28]: 5323; Emission maximum shift [1, 29]: 0 nm; Stern–Volmer equation Slope [6, 30]: 18536.73 ± 2298.23; Ksv (Stern-Volmer quenching constant) [6, 31]: 18.53 ×10^3 L·mol^− 1; blue shift of the maximum fluorescence emission peak of BSA (Δλmax) [6, 32]: 1.4 nm; Kq (bimolecular quenching constant) ([6]; Kq = KSV/τ0, τ0 6.3 × 10^-9 s): 29.41 ×10^11 L·mol^− 1·s^− 1; n (number of binding sites per BSA molecule) [6, 33]: 0.8287
CCc1c2c(nc3ccc(OC(=O)N4CCC(N5CCCCC5)CC4)cc13)-c1cc3c(c(=O)n1C2)COC(=O)[C@]3(O)CC [CPT-11, Irinotecan] | – | – | – | – | – | – | – | – | – | – | – | – | – | – | – | – | – | – | – | – | τ2 [4]: 7.79 ns; Changes in absorption peaks (280 nm) [5]: 280 nm→258 nm
CC[C@@]1(O)C(=O)OCc2c1cc1n(c2=O)Cc2cc3c(CN(C)C)c(O)ccc3nc2-1 [TPT, Topotecan] | – | – | – | 0.8636 | 0.1543 | 1.699 | 7.6602 | 4.36 | 12 | 280 nm→268 nm | 11 | 275/340 | 8453 | 0 | 225/340 | 5380 | 0 | 275/325 | 4956 | 15 | λex/λem [1, 27]: 225/320; Intensity [1, 28]: 2777; Emission maximum shift [1, 29]: 20 nm; circulation t1/2 [7]: ≈ 8 h; ΔS [8]: 0.066 kJ·mol^− 1·K^− 1; Kd [3]: 12.6 µM and 6.61 µM and 12 µM; molar fraction at maximum fluorescence intensity change (Job's plot) [9]: 0.5; Kd ([10]; 293 K): 3.98 µM; Kd ([10]; 298 K): 4.37 µM; Kd ([10]; 310 K): 5.13 µM; Stern–Volmer equation Slope [6, 30]: 29101.32 ± 782.38; Ksv (Stern-Volmer quenching constant) [6, 31]: 29.10 ×10^3 L·mol^− 1; blue shift of the maximum fluorescence emission peak of BSA (Δλmax) [6, 32]: 1.0 nm; Kq (bimolecular quenching constant) ([6]; Kq = KSV/τ0, τ0 6.3 × 10^-9 s): 46.19 ×10^11 L·mol^− 1·s^− 1; KSV ([6]; as quoted in the discussion of Table 2): 29.10 × 10^2 M^− 1; n (number of binding sites per BSA molecule) [6, 33]: 1.1165
